Key:
[1] = tested on: SOX2^+ cells in SLG explants; assay: Ex vivo lineage tracing in adult salivary gland explants (Sox2CreERT2; Rosa26mTmG); assay type: cell-based, mouse; settings: 200 nM, 48 h
Method: Salivary glands from Sox2^CreERT2; Rosa26^mTmG mice (recombination induced 24 h prior) were mechanically dissected into <1-mm pieces, placed in complete media in the presence or absence of 200 nM CCh (Sigma-Aldrich) or 10 μM 4-DAMP (Tocris), and cultured for 48 h before being fixed for immunofluorescence. In some cases, mice were irradiated with three doses of 5 Gy before glands were taken for culture as above.
Whole-mount salivary gland and tissue section immunofluorescence analysis has been previously described (Knox et al., 2010). In brief, tissue was fixed with either ice-cold acetone/methanol (1:1) for 1 min or 4% PFA for 20-30 min followed by permeabilizing with 0.1-0.3% Triton X. Tissue was blocked overnight at 4° C. with 10% Donkey Serum (Jackson Laboratories, ME), 1% BSA (Sigma-Aldrich), and MOM IgG-blocking reagent (Vector Laboratories, CA) in 0.01% PBS-Tween 20. […] Antibodies were detected using Cy2-, Cy3-, or Cy5-conjugated secondary Fab fragment antibodies (Jackson Laboratories) and nuclei stained using Hoechst 33342 (1:1,000, Sigma-Aldrich). Fluorescence was analyzed using a Leica Sp5 confocal microscope and NIH ImageJ software.
For immunofluorescent analyses (e.g., FIG. 2D), cells positively stained for markers were counted using ImageJ. Acinar cell size was measured using ImageJ. […]

[2] = tested on: human salivary gland (SMG or PG) explants; assay: Human salivary gland explant culture with CCh, qPCR; assay type: cell-based; settings: 200 nM, 4 h, vs untreated
From the text: Adult human salivary gland was obtained from discarded, non-identifiable tissue with consent from patients undergoing neck resection (age 28-78, male and female). Informed consent was given by all subjects and experiments conformed to the principles set out in the WMA Declaration of Helsinki and the Department of Health and Human Services Belmont Report. Patients had either had no irradiation therapy (non-IR) or fractionated radiation therapy (IR)<2 years prior to surgery. Tissue was immediately placed in 4% PFA, RNAlater (Qiagen) or DMEM (Thermo Fisher) for live cell explant culture. For ex vivo culture, non-IR tissue was dissected into <1-mm pieces and cultured in serum-free DMEM/F12 containing holotransferrin and ascorbic acid. For explant assays, the tissue (SMG and PG) was incubated with 50-200 nM CCh (200 nM CCh shown in results) for 4 h before being lysed for RNA. For salivary gland explant-parasympathetic submandibular ganglia […] co-culture, tissue was dissected into <1-mm pieces and cultured on a floating filter above serum-free media. E13 mouse parasympathetic submandibular ganglia were isolated as previously described (Knox et al., 2010). One parasympathetic submandibular ganglion per explant was placed next to the human salivary gland and cultured for 7 days and either fixed for immunofluorescent analysis or lysed for RNA.
RNA was isolated from whole tissue using RNAqueous Micro Kit (Ambion). Total RNA samples were DNase-treated (Ambion) prior to cDNA synthesis using SuperScript reagents (Invitrogen, CA). SYBR green qPCR was performed using 5 ng (mouse) or 4-10 ng (human) of cDNA and primers designed using Primer3 and Beacon Designer software or described on PrimerBank (pga.mgh.harvard.edu/primerbank/). Melt curves and primer efficiency were determined as previously described (Hoffman et al., 2002). Gene expression was normalized to the housekeeping genes S18 and S29 (Rps18 and Rsp29) or GAPDH for mouse and GAPDH for human and to the corresponding experimental control. Reactions were run in triplicate and experiments performed 2-3 times.

[3] = In vitro cevimeline release from alginate hydrogels (LC-MS/MS); assay type: physicochemical
Method: A Shimadzu Prominence LC-20ADXR system interfaced to a 4500 QTrap mass spectrometer with an electrospray ionization (ESI) source was operated for LC-MS/MS analysis. The chromatographic separation was achieved using a Phenomenex KineteX® C18 (50×3 mm, 2.6 μm) column coupled with a Phenomenex SecurityGuard C18 guard column (3 mm×2.0 mm). The column temperature was controlled at 30° C. Mobile phase A was 0.1% Trifluoroacetic acid in water and mobile phase B was acetonitrile (ACN). The injection volume was 10 μL and the flow rate was 0.5 mL/min. The gradient condition was: (time/minute, % mobile phase B): (0, 15), (1, 15), (2.5, 22.8), (2.6, 98), (5, 98), (5.1, 15), and (8, 15). The source parameters included curtain gas of 45 psi, ion spray voltage of 4000 V, ion source temperature of 550, and medium collision gas.
Standard working solutions of cevimeline were prepared over the range from of 10.0-10000.0 ng/mL in methanol. Working solutions were spiked into 100 μL of DMEM to generate the standards or QC samples. The final concentrations of the calibration standards were 0.5, 1.0, 2.5, 5.0, 10.0, 25.0, 50.0 and 100.0, 250.0 and 500 ng/mL in DMEM. The QC samples were 0.9, 4, 30.0 and 400.0 ng/mL.
For the sample preparation step, to each 100 μL DMEM, 10 μL IS working solution (1000 ng/mL) was added. 96-Well Protein Precipitation Filter Plate Sigma-Aldrich (St. Louis, MO) and 300 μl of MeOH:ACN (15:85) were used for protein precipitation. 200 μl of NH4OH 5% was added to 200 μl of the sample after filtration and 10 μl was injected to the LCMS system. The bioanalytical method was validated in accordance with current U.S. FDA guidelines including selectivity, linearity, intra- and interday precision and accuracy, recovery and stability (“Guidance for Industry, Bioanalytical Method Validation,”2018 fda.gov/media/70858/download).
In vitro cevimeline (CV) release from OA hydrogels was tested by creating 1 mm×4 mm disks with either a 2 or 5% oxidation at a weight/volume of 2, 5, or 10%. Alginate+cevimeline (Abcam, ab141317) hydrogels were created by resuspending the drug at the desired concentration in the DMEM prior to mixing with the lyophilized OA, subsequent crosslinking proceeds as described above to encapsulate the drug with the OA hydrogel. Three 4 mm alginate+cevimeline hydrogels were placed in 0.4 μm transwell in a 12-well plate containing 3.2 ml of DMEM incubating in 37° C. with slow continuous agitation (100 RPM). Sample media (3 ml DMEM) was collected and replenished at 4 hours, 1-, 2-, 3-, 4-, 5-, and 7 days (D). Three hydrogels were pooled together with an average of 3-5 separate replicates (samples) at each time point. Sample media was stored at −20° C. until mass spectroscopy analysis was performed. […]

[4] = tested on: acinar cells of the sublingual gland; assay: Intraglandular injection of cevimeline, acinar cell proliferation; assay type: in vivo, mouse; settings: 10 mg/kg (20 μL) directly into sublingual gland, 18 hrs, non-irradiated mice, vs saline
Method: Given our previous findings that systemic administration of a muscarinic mimetic promotes salivary gland proliferation, we next determined if local intraglandular injection was also able to promote a mitotic response. To determine if cevimeline could act locally on the salivary gland to induce acinar cell proliferation we injected cevimeline at 10 mg/kg of body weight (20 μL) directly into the sublingual gland and measured proliferation after 18 hrs.
For Intraglandular injection of cevimeline, mice were administered with analgesics 30 min prior to surgery (carprofen and buprenorphine; Patterson Veterinary and Buprenex; 0.1 mg/kg and […] (IP), respectively) and anaesthetized via inhalation with 2% isoflurane/O2mix. The surgical area was shaved and prepared for incision with alternating iodine and alcohol washes, followed by local anesthetic (lidocaine; Hospira Inc., 8 mg/kg). […]
Tissue section immunofluorescence analysis was processed as follows. […] Antibodies were detected using Cy2-, Cy3- or Cy5-conjugated secondary Fab fragment antibodies (1:300, Jackson Laboratories) and nuclei stained using Hoescht 33342 (1:1000, AnaSpec Inc.). […] Slides were mounted using Fluoromount-G (SouthernBiotech) and fluorescence was analyzed using a Leica Sp5 confocal microscope. Image processing and quantification was performed using NIH ImageJ software.

[5] = long term oral use in patients; cited from earlier work
[6] = cited from earlier work
[7] = tested on: acinar cells of irradiated salivary glands; assay: Cell proliferation in salivary glands after gamma-radiation induced damage; assay type: in vivo, mouse; settings: 14 days after 10Gy, 18 hrs, vs saline

C[N+](C)(C)CCOC(N)=O [CCh, carbachol]
GFP^+ clones ([1]; healthy (no IR) SLG tissue): increase
cell proliferation (Ki67^+ cells) ([1]; healthy SLG tissue): increase
GFP^+ cells in IR explants ([1]; irradiated SLG explants, compared to IR alone): increased
expression of AQP3 ([2]; n=4 individuals): significantly increased
expression of AQP5 ([2]; n=4 individuals): significantly increased
expression of CHRM1 ([2]; n=4 individuals): significantly increased
expression of CHRM3 ([2]; n=4 individuals): significantly increased
expression of MIST1 ([2]; n=4 individuals): significantly increased
expression of SOX2 ([2]; n=4 individuals): significantly increased
KRT19 gene expression [2]: increase
expression of ductal marker EGFR [2]: remained unchanged
expression of ductal marker KRT7 [2]: remained unchanged
expression of ductal marker KRT8 [2]: remained unchanged

CC1OC2(CS1)CN1CCC2CC1 (stereo not shown) [cevimeline]
release rates with different starting drug loading ([3]; 2% OA hydrogels at 5 wt %, different initial cevimeline loading per disk): remain relatively consistent
cevimeline released by 2 days ([3]; from OA alginate hydrogels (2 or 5% OA; 2, 5 or 10 wt %)): over 85±5%
day by which all cevimeline had been released ([3]; from OA hydrogels): ≤ 4 days
duration of sustained release ([3]; from alginate hydrogel): 2 days
acinar cell proliferation [4]: significantly increased
salivary gland function [5]: improves salivary gland function
pKA [6]: 9.5
proliferation of acinar cells in irradiated mice ([7]; local (intraglandular) 10 mg/kg): increased
proliferation of acinar cells in irradiated mice ([7]; systemic (i.p.) 10 mg/kg): increased
